From patent US6544727B1, “Methods and devices for the removal of psoralens from blood products” (Cerus Corporation, priority 1995, dated 2003)
Where “and” joins values, the source holds several entries; their conditions need not be identical. Identical values can stand only once. Like-named read-outs stand apart in the source and are kept apart here.

Columns and labels:
[1] = tested on: Salmonella tester strain TA98; assay: Ames test, strain TA98
Experimental: (§1) In this example the compounds of the present invention are tested for their dark mutagenicity using an Ames assay. The procedures used for the Salmonella mutagenicity test as described in detail by Maron and Ames were followed exactly. Maron, D. M. and B. N. Ames, Mutation Research 113: 173 ( 1983). A brief description for each procedure is given here. The tester strains TA97a, TA98, TA100, TA102, TA1537 and TA1538 were obtained from Dr. Ames. TA97a, TA98, TA1537 and TA1538 are frameshift tester strains. TA100 and TA102 are base-substitution tester strains. Upon receipt each strain was cultured under a variety of conditions to confirm the genotypes specific to the strains.
(§2) The first tests done with the strains were to determine the range of spontaneous reversion for each of the strains. With each mutagenicity experiment the spontaneous reversion of the tester strains to histidine independence was measured and expressed as the number of spontaneous revertants per plate. This served as the background controls.
For all experiments, the pre-incubation procedure was used. In this procedure one vial of each tester strain was thawed and 20 μL of this culture was added to 6 mL of Oxoid Nutrient Broth #2. This solution was allowed to shake for 10 hours at 37° C. In the pre-incubation procedure, 0.1 mL of this overnight culture was added to each of the required number of sterile test tubes. To half of the tubes 0.5 mL of a 10% S-9 solution containing Aroclor 1254 induced rat liver extract (Molecular Toxicology Inc., Annapolis, Md.), and MgCl2, KCl, glucose-6-phosphate, NADP, and sodium phosphate buffer (Sigma, St. Louis, Mo.) were added. To the other half of the tubes 0.5 mL of 0.2M sodium phospate buffer, pH 7.4, was used in place of the S-9 mixture (the—S9samples). […] The 0.7 mL mixture was vortexed and then pre-incubated while shaking for 20 minutes at 37° C. After shaking, 2 mL of molten top agar supplemented with histidine and biotin were added to the 0.7 mL mixture and immediately poured onto a minimal glucose agar plate (volume of base agar was 20 mL). The top agar was allowed 30 minutes to solidify and then the plates were inverted and incubated for 44 hours at 37° C. After incubation the number of revertant colonies on each plate were counted. […] (“n” represents the number of replicates performed for each data point.)

[2] = tested on: Salmonella tester strain TA1537; assay: Ames test, strain TA1537
Experimental: as §1, §2
(§3) For all experiments, the pre-incubation procedure was used. In this procedure one vial of each tester strain was thawed and 20 μL of this culture was added to 6 mL of Oxoid Nutrient Broth #2. This solution was allowed to shake for 10 hours at 37° C. In the pre-incubation procedure, 0.1 mL of this overnight culture was added to each of the required number of sterile test tubes. To half of the tubes 0.5 mL of a 10% S-9 solution containing Aroclor 1254 induced rat liver extract (Molecular Toxicology Inc., Annapolis, Md.), and MgCl2, KCl, glucose-6-phosphate, NADP, and sodium phosphate buffer (Sigma, St. Louis, Mo.) were added. To the other half of the tubes 0.5 mL of 0.2M sodium phospate buffer, pH 7.4, was used in place of the S-9 mixture (the—S9samples). Finally 0.1 mL of the test solution containing either 0, 0.1, 0.5, 1, 5, 10, 50, 100, 250, or 500 μg/mL of the test compound was added. The 0.7 mL mixture was vortexed and then pre-incubated while shaking for 20 minutes at 37° C. After shaking, 2 mL of molten top agar supplemented with histidine and biotin were added to the 0.7 mL mixture and immediately poured onto a minimal glucose agar plate (volume of base agar was 20 mL). The top agar was allowed 30 minutes to solidify and then the plates were inverted and incubated for 44 hours at 37° C. After incubation the number of revertant colonies on each plate were counted. […] (“n” represents the number of replicates performed for each data point.)

[3] = tested on: Duck Hepatitis B Virus (DHBV); assay: Inactivation of Duck Hepatitis B Virus in platelet concentrate, read by PCR amplification; format: biochemical; details: 5 J/cm^2 UVA
Experimental: DHBV in duck yolk was added to platelet concentrate (PC) to a final concentration of 2×10^7 particles per mL and mixed by gentle rocking for ≧15 min. […] Samples, including controls without added psoralen, were irradiated with 5 J/cm^2 UVA, with mixing at 1 J/cm^2 increments. After irradiation, leukocytes and platelets were separated from virus by centrifugation. The supernatant containing DHBV was digested overnight with 50 μg/mL proteinase K in a buffer containing 0.5% sodium dodecyl sulphate, 20 mM Tris buffer, pH 8.0, and 5 mM EDTA at 55° C. Samples were extracted with phenol-chloroform and chloroform, followed by ethanol precipitation. Purified DNA was then used in PCR amplification reactions with a starting input of 10^6 DHBV genomes from each sample. […] The amplification was followed by a 7 min incubation at 72° C. to yield full length products. [[…]-^32P] dCTP was added at an amount of […] in order to detect and quantify the resulting products. Products were separated by electrophoresis on denaturing polyacrylamide slab gels and counted. The absence of signal in a given reaction was taken to indicate effective inactivation of DHBV.

[4] = tested on: Chinese hamster ovary (CHO) cells; assay: In vitro genotoxicity screen in CHO cells; details: approximately 3 hours exposure in the dark
Source text: In such studies, cells are exposed to chemicals with and/or without rat S-9 metabolic activation system (S-9) and are later examined for either cell survival (for a genotoxicity screen) or for changes in chromosome structure (for a chromosome aberration assay).
Chinese hamster ovary (CHO; ATCC CCL 61 CHO-K1, proline-requiring) cells were used for the in vitro genotoxicity and chromosomal aberration tests. CHO cells are used extensively for cytogenic testing because they have a relatively low number of chromosomes (2n=20) and a rapid rate of multiplication (˜12 to 14 hours, depending on culture conditions). The cells were grown in an atmosphere of 5% CO2 at approximately 37° C. in McCoy's 5a medium with 15% fetal bovine serum (FBS), 2 mM L-glutamine, and 1% penicillin-streptomycin solution to maintain exponential growth. This medium was also used during exposure of the cells to the test compound when no S-9 was used. Cell cultures were maintained and cell exposures were performed in T-75 or T-25 flasks.
Each of the sample compounds were tested at seven dilutions, 1, 3, 10, 33, 100, 333, and 1000 μg/ml. […]
After approximately 2.5 hours in colchicine, the cells were harvested. […] The cell density and metaphase quality on the initial slide from each flask was monitored using a phase-contrast microscope; at least two slides of appropriate cell density were prepared from each flask. […]

[5] = tested on: Salmonella tester strain TA1538
Experimental: as §1, §2, §3

SMILES | revertant colonies per plate ([1]; TA98 + S9, 10 μg/plate) | revertant colonies per plate ([1]; TA98 + S9, 50 μg/plate) | revertant colonies per plate ([1]; TA98 + S9, 100 μg/plate) | revertant colonies per plate ([1]; TA98 − S9, 10 μg/plate) | revertant colonies per plate ([1]; TA98 − S9, 50 μg/plate) | revertant colonies per plate ([1]; TA98 − S9, 100 μg/plate) | revertant colonies per plate ([2]; TA1537 + S9, 10 μg/plate) | revertant colonies per plate ([2]; TA1537 + S9, 50 μg/plate) | revertant colonies per plate ([2]; TA1537 + S9, 100 μg/plate) | revertant colonies per plate ([2]; TA1537 − S9, 10 μg/plate) | revertant colonies per plate ([2]; TA1537 − S9, 50 μg/plate) | revertant colonies per plate ([2]; TA1537 − S9, 100 μg/plate) | revertant colonies per plate ([1]; TA98 + S9, 250 μg/plate) | revertant colonies per plate ([1]; TA98 − S9, 250 μg/plate) | concentration at which the compound was genotoxic (toxic dose) [4] | revertant colonies per plate ([2]; TA1537 + S9, 250 μg/plate) | revertant colonies per plate ([2]; TA1537 − S9, 250 μg/plate) | other results
Cc1cc(=O)oc2c(C)c3oc(COCCN)c(C)c3cc12 [Compound 18, 5′-(4-amino-2-oxa)butyl-4,4′,8-trimethylpsoralen] | 8 | 6 | 26 | 21 | 303 | 390 | 8 | 6 | 26 | 21 | 303 | 390 | – | – | – | – | – | revertant colonies per plate ([1]; TA98 + S9, 200 μg/plate): 42; revertant colonies per plate ([1]; TA98 − S9, 200 μg/plate): 225; revertant colonies per plate ([2]; TA1537 + S9, 200 μg/plate): 42; revertant colonies per plate ([2]; TA1537 − S9, 200 μg/plate): 225
Cc1oc2c(C)c3oc(=O)cc(C)c3cc2c1CN [AMT, 4′-Aminomethyl-4,5′,8-trimethylpsoralen, reference compound] | 403 | 620 | 745 | 20 | 69 | 114 | 30 | 94 | 686 and 500 | 52 | 2688 | – | 933 | 112 | 30 µg/mL | 3738 | 434 | revertant colonies per plate ([1]; TA98 + S9, 0.1 μg/plate): 1; revertant colonies per plate ([1]; TA98 + S9, 0.5 μg/plate): 3; revertant colonies per plate ([1]; TA98 + S9, 1 μg/plate): 21; revertant colonies per plate ([1]; TA98 + S9, 5 μg/plate): 232; revertant colonies per plate ([1]; TA98 − S9, 0.1 μg/plate): 3; revertant colonies per plate ([1]; TA98 − S9, 0.5 μg/plate): 5; revertant colonies per plate ([1]; TA98 − S9, 1 μg/plate): 5; revertant colonies per plate ([1]; TA98 − S9, 5 μg/plate): 16; PCR of the 1072 bp DHBV amplicon ([3]; 35 mM final concentration (so in the source)): a signal could be detected; PCR of the 1072 bp DHBV amplicon ([3]; 70 and 100 mM levels (so in the source)): inhibited PCR amplification; revertant colonies per plate ([2]; TA1537 + S9, 0.1 μg/plate): 2; revertant colonies per plate ([2]; TA1537 + S9, 0.5 μg/plate): 2; revertant colonies per plate ([2]; TA1537 + S9, 1 μg/plate): 3; revertant colonies per plate ([2]; TA1537 + S9, 5 μg/plate): 22; revertant colonies per plate ([2]; TA1537 − S9, 0.1 μg/plate): 0; revertant colonies per plate ([2]; TA1537 − S9, 0.5 μg/plate): 3; revertant colonies per plate ([2]; TA1537 − S9, 1 μg/plate): 5; revertant colonies per plate ([2]; TA1537 − S9, 5 μg/plate): 44
Cc1oc2c(C)c3oc(=O)cc(C)c3cc2c1CNCCCCN [Compound 6, 4′-(6-amino-2-aza)hexyl-4,5′,8-trimethylpsoralen] | – | – | – | – | – | – | – | – | 20 and 35 | – | – | – | – | – | 100 µg/mL | – | – | revertant colonies per plate ([5]; TA1538 + S9, 50 μg/plate): 24; revertant colonies per plate ([5]; TA1538 + S9, 100 μg/plate): −2; revertant colonies per plate ([5]; TA1538 + S9, 250 μg/plate): −38; revertant colonies per plate ([5]; TA1538 − S9, 50 μg/plate): 2; revertant colonies per plate ([5]; TA1538 − S9, 100 μg/plate): −18
Cc1oc2c(C)c3oc(=O)cc(C)c3cc2c1COCCN [Compound 2, 4′-(4-amino-2-oxa)butyl-4,5′,8-trimethylpsoralen] | 24 | 35 | 53 | 28 | 52 | 39 | 5 | 40 | 88 | 36 | 282 | 258 | 69 | 29 | – | 744 | 176 | revertant colonies per plate ([1]; TA98 + S9, 500 μg/plate): 63; revertant colonies per plate ([1]; TA98 − S9, 500 μg/plate): 6; PCR of the 1072 bp DHBV amplicon ([3]; all concentrations (35, 70, and 100 mM as printed), platelet concentrate): complete inhibition of PCR; PCR of the smaller DHBV amplicons (127 bp, 327 bp) compared with AMT ([3]; same concentrations): inhibited PCR of the smaller amplicons better than did AMT; revertant colonies per plate ([5]; TA1538 + S9, 5 μg/plate): 2; revertant colonies per plate ([5]; TA1538 + S9, 10 μg/plate): 4; revertant colonies per plate ([5]; TA1538 − S9, 5 μg/plate): −8; revertant colonies per plate ([5]; TA1538 − S9, 10 μg/plate): −13; revertant colonies per plate ([2]; TA1537 + S9, 500 μg/plate): 395; revertant colonies per plate ([2]; TA1537 − S9, 500 μg/plate): 114
